Source: US12503426B2, “Synthetic derivatives of oleoyl-lysophosphatidylinositol (oleoyl-LPI) and uses thereof” (LIPOVEXA SRL, priority 2017, dated 2025)
pEC50: −log10 of the molar value.

Tests used:
NCI-H716 cells = assay: GLP-1 secretion by NCI-H716 cells (Examples 2-8); assay type: cell-based, human; conditions: 2 hours
Procedure: NCI-H716 cells were maintained in 75 cm^2 tissue culture flasks (Corning) in RPMI 1640 media containing 2.0 mM L-glutamine, 1.5 g/L sodium bicarbonate, 10 mM HEPES buffer, 1.0 mM sodium pyruvate, and 4.5 g/L glucose and supplemented with 10% FBS at a 37° C. and 5% CO2. When plating for experiment, cell adhesion and endocrine differentiation were initiated by growing cells in dishes coated with growth factor reduced Matrigel diluted at the ratio of 1:2 (Becton Dickinson, Bedford, MA) in high-glucose DMEM, 10% FBS, 2 mM glutamine, 100 IU/ml penicillin, and 100 μg/ml streptomycin as described previously by De Bruine, a P., Dinjens, W. N., van der Linden, E. P., Pijls, M. M., Moerkerk, P. T., & Bosman, F. T. (1993) The American Journal of Pathology, Vol 142(3), pp 773-782, the disclosure of which is incorporated herein in its entirety by reference.
Approximately 80,000 Glutag cells were plated in poly-L-lysine-coated 24-well culture plates and grown to about 80% confluence. NCI-H716 cells were seeded on growth factor reduced Matrigel™ (Becton Dickinson, Bedford, MA) in DMEM medium, supplemented with 10% FBS the day before the experiment. For NCI-H716 cells, approximately 25,000 cells were needed for this secretion experiment in order to have good stimulation with lower basal GLP-1 secretion. In brief, Glutag and NCI-H716 cells were washed twice and then incubated for 2 h with FBS-free DMEM containing 1% (M:C) alone (negative control), 10 μM forskolin as positive control (Sigma-Aldrich), or with different concentrations of Oleoyl-LPI. M:C was used as a solvent to prepare stock solutions of fatty acid derivatives and inhibitors. For secretion experiments, medium and cells were collected separately.
In separate studies, GLUTag or NCI-H716 cells were pre-treated for 1 hour with medium alone (1% DMSO, negative control), PD98059 (50 μM; Sigma Chemical Co.), H89 (10 μM; Santa Cruz) followed by treatment with oleoyl-LPI (20 μM), OEA (10 μM), AR231453(1 μM), PMA (10 μM) or forskolin (10 μM, positive control) in the presence of inhibitors, as appropriate, for about 2 h. Medium GLP-1 secretion was calculated as total GLP-1 content of medium normalised for the basal secretion of the control.
In order to investigate the role of different LPI species in enteroendocrine cells, murine (Glutag) and human (NCI-H716) L-cells were stimulated with the following different species of LPI: Arachidonyl-LPI, Stearoyl-LPI, Heptadecenoyl-LPI and oleoyl-LPI, as well as with OEA and LPC. Experiments were performed in duplicate, n=4 and the level of total GLP-1 was measured by ELISA.

human GPR119 = molecular target: T1, human GPR119 (Homo sapiens, UniProt Q8TDV5); assay: cAMP assay in GPR119 transfected COS-7 cells; assay type: cell-based; conditions: COS-7 cells expressing human GPR119, agonists 30 min; read-out: EC50, production of cAMP
T1 construct: expressed in transfected cells; host or cells: COS-7 cells, calcium phosphate transfection
T1 sequence (Q8TDV5 1-335): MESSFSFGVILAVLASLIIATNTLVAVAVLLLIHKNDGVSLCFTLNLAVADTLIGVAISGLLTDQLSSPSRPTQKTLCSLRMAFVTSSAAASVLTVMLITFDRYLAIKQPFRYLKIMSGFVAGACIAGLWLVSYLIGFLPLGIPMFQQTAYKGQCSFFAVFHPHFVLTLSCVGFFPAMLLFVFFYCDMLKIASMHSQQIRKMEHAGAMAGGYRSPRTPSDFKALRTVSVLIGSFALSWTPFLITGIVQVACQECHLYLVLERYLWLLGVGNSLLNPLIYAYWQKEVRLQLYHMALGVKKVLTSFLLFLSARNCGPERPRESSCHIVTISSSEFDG
Procedure: COS-7 cells were cultured in Dulbecco's modified Eagle medium (DMEM) 1885 supplemented with 10% FBS, […] L-glutamine and 180 IU/ml penicillin+[…] streptomycin (Pen Strep) (Life Technologies, CA, USA) at 37° C. and 10% CO2. The COS-7 cells were transiently transfected with GPR119 or pcDNA by the calcium phosphate transfection method for 5 hours in 37° C., 10% CO2 as described by Kissow H, Hartmann B, Hoist J J, Viby N E, Hansen L S, Rosenkilde M M, Hare K J, Poulsen S S. Regul Pept. 2012. Vol: 179(1-3), pp 91-100; the disclosure of which is incorporated herein in its entirety by way of reference.
COS-7 cells were transfected with about 40 μg GPR119 DNA or pcDNA3 per […] flask. One day after transfection, the cells were seeded out (about 35,000 cell/well) in a 96 well white plate (Perkin Elmer, Massachusetts, USA). The cells were washed twice the following day and incubated for 30 min, at 37° C. with HBS and 1 mM IBMX (Sigma Aldrich, USA). Agonists were added for 30 min in the assay medium. The Hithunter® cAMP XS+ (DiscoveRx, Fremont, USA) was carried out by following the manufacturer's instructions.
Accordingly, the work outlined in this example evaluates whether activation of GPR119 by oleoyl-LPI in enteroendocrine L cell affect the proglucagon gene expression by monitoring the CREB activity. […]

pEC50 (human GPR119): 6.62
Substance: oleoyl-lysophosphatidylinositol [oleoyl-LPI]
GLP-1 secretion (NCI-H716 cells; NCI-H716 cells, normalised as percentage of cells treated with vehicle (control)): 124±7.4%
effect of down-regulation of GPR55 on GLP-1 secretion (NCI-H716 cells; siGPR55 transfected NCI-H716 cells, oleoyl-LPI 20 μM): no effect on GLP-1 secretion
GLP-1 secretion in siGPR119-transfected cells (NCI-H716 cells; siGPR119 transfected NCI-H716 cells, oleoyl-LPI 20 μM): significantly reduced the GLP-1 secretion to the basal level
